Results as given in patent US20160250285A1, “NEUROPROTECTIVE PEPTIDES” (priority 2013, published 2016).
Entries after “also recorded” stand apart in the source; their conditions may differ. Where two headings read alike, the source gives them in different places.

Assays:
[1] = tested on: primary cortical neuronal cultures; assay: In vitro ischemia / oxygen-glucose deprivation (OGD) model, neurons; type: cell-based, rat; details: for neuroprotection when added for 15 minutes after OGD: FIGS. 31, 20, 22, 1 μM and 5 μM in FIG. 31; for neuroprotection when added post-in vitro ischemia/OGD: added after anaerobic incubation until experiment end (FIGS. 3b, 16, 17)
[2] = tested on: primary cortical neuronal cultures; details: for neuroprotection, peptide present during the 5 minute glutamic acid insult only: FIG. 28; for neuroprotection, 10 minute pre-exposure removed immediately prior to insult: FIG. 29, FIG. 14

Molecule	efficacy at higher concentrations, added post-in vitro ischemia ([1]; FIG. 3b)	neuroprotection, peptide for 10 minutes, 1 to 3 hours prior to OGD ([1]; FIG. 32)	neuroprotection when added for 15 minutes after OGD [1]	neuroprotection when added post-in vitro ischemia/OGD [1]	IC50 [2] [nM]	neuroprotective efficacy at the higher concentration ([2]; 5 μM, dose response study)	neuroprotection, peptide present during the 5 minute glutamic acid insult only [2]	neuroprotection, 10 minute pre-exposure removed immediately prior to insult [2]	neuroprotection (neuronal viability) ([2]; peptide 15 min prior to and during glutamic acid exposure, viability 24 h, MTS)	IC50 ([1]; Table 3, from FIG. 3a, peptide during ischemia and at 50% dose after, viability 24 h, MTS, read-out: IC50: In vitro ischemia model) [nM]	neuroprotection when added 15 minutes post-insult ([2]; 15 min post-glutamic acid (FIG. 1d))	fold more potent than TAT-D, based on IC50 values ([2]; glutamic acid model) [fold]	MTS absorbance levels relative to baseline ([2]; normal neurons and following injury)	IC50 ([2]; read-out: IC50: Glutamic acid model, Table 3, from dose response graph FIG. 1a, peptide 15 min prior to and during 100 μM glutamic acid (5 min), viability 24 h, MTS) [nM]	IC50 ([2]; read-out: IC50: Glutamic acid model, Table 4, polyarginine peptides, from dose response graph FIG. 1e) [nM]
H-RRRRRRRRRRRRRRRRRR-OH [Peptide R18]	reduced efficacy	effective	Neuroprotection is displayed	displayed neuroprotective effects; also recorded: effective	240	reduced	effective	effective	showed significant neuroprotection	–	–	–	–	–	–
N=C(N)NCCC[C@H](NC(=O)[C@H](CCCNC(=N)N)NC(=O)[C@H](CCCNC(=N)N)NC(=O)[C@H](CCCNC(=N)N)NC(=O)[C@H](CCCNC(=N)N)NC(=O)[C@H](CCCNC(=N)N)NC(=O)[C@H](CCCNC(=N)N)NC(=O)[C@H](CCCNC(=N)N)NC(=O)[C@@H](N)CCCNC(=N)N)C(=O)O [Peptide R9]	–	–	not	displayed neuroprotective effects; also recorded: effective	–	–	effective	effective	–	6000	mildly effective	17	increase MTS absorbance levels above baseline levels	780	830
